Format in all cases: biochemical
Experiment [1] concerns the target T1, prostate-specific membrane antigen (PSMA) (Homo sapiens, UniProt Q04609). Briefly: PSMA enzyme inhibition assay with purified PSMA.
For experiment [2], the target named is T1, prostate-specific membrane antigen (PSMA). Briefly: PSMA enzyme inhibition assay.
The target is the same in experiment [3]. The experiment can be described thus: PSMA enzyme inhibition assay with purified PSMA. The source holds these as a separate data set.

This note sets out measurements from publication PMC3201797 (Bioorganic & medicinal chemistry letters, 2010).

One may read the IC50 as the concentration that inhibits the measured activity by half. Read a high IC50 as weaker potency in that assay.

T1 sequence (Q04609 whole entry): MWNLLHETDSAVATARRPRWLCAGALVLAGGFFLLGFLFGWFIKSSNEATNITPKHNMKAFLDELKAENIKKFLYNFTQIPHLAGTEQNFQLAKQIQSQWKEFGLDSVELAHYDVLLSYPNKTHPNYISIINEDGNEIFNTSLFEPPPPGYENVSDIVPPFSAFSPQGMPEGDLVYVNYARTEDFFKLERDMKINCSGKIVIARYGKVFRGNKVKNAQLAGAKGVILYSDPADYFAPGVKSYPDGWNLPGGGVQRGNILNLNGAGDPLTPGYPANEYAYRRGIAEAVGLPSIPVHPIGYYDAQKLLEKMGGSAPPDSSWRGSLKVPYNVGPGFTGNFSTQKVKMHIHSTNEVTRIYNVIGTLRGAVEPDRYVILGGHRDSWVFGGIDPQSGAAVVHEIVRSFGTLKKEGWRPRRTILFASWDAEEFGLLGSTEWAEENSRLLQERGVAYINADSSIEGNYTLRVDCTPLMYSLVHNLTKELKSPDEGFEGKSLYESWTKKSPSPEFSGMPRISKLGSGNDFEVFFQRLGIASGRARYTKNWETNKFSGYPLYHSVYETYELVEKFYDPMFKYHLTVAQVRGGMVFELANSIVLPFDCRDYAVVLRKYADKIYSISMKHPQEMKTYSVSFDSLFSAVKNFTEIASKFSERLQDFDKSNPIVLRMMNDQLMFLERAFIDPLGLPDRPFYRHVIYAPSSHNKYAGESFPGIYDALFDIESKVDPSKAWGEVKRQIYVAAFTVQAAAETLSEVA

The substance Cy5.5-CTT-54.2 showed an IC50 in experiment [1] of 0.55 nM.

On to Cy5.5 free acid, for which inhibition in experiment [2] was half-maximal at 6100 nM (IC50). In other words, the single-digit micromolar range.

In the case of CTT-54.2, in experiment [3], the IC50 is 144 nM.
